US7345033B2, “Carbamoyl-and thiocarbamoyl-phosphonates and pharmaceutical compositions comprising them” (Yissum Research Development Company of the Hebrew …, priority 2003, dated 2008)
Like-named read-outs stand apart in the source and are kept apart here.

Assays:
MMP-3 = MMP-3 (Homo sapiens, UniProt P08254); assay: Selectivity towards different MMPs: MMP-3; assay type: biochemical; details: Table 2
murine melanoma = assay: Tumor growth and metastasis in vivo, murine melanoma model; set-up: species or system mice; details: for inhibition in vivo at 50 mg/kg: Mus musculus, 504 h; for oral bioavailability: values equal the PO % reduction in murine melanoma of Table 1
Source text: Tumor Growth and Metastasis in Animal Models—in vivo Test
The abilities of the novel carbamoylphosphonates to inhibit the formation of metastatic lesions in vivo were examined in the murine melanoma model both by intraperitoneal (IP) and peroral (PO) administration. […] This is especially important, since oral administration is the most convenient one for the patient, especially for long term chronic treatments such as those envisaged for drugs that are the subject of this application.

cancer cells = assay: Matrigel chemoinvasion assay (Boyden chambers); assay type: cell-based; details: 6 h, read-out: Chemoinvasion % inhibition at 50 μM
Source text: Matrigel Chemoinvasion Assay
This assay measures in vitro the potency of the compounds to repress the invasiveness of cancer cells, by inhibiting the MMPs produced by them. The assay uses a reconstituted basement membrane preparation, which is similar to the natural basement membranes that the tumor cells have to cross, in order to disseminate. The compounds examined have been added to the invasion chambers at various concentrations, and the resulted invasion was compared to untreated preparations.
Description of the of the Matrigel Chemoinvasion Experiment
a) The chemoinvasion assays were performed in Boyden chambers. Matrigel (25 μg) was dried on a polycarbonated filter (PVP free, Nucleopore). Fibroblast conditioned medium (obtained from confluent NIH-3T3 cells cultured in serum free DMEM) is used as the chemoattractant. […] The chambers were incubated in a humidified incubator at 37° C. in 5% CO2/95% air atmosphere for 6 h. The cells, which traversed the Matrigel layer and attached to the lower surface of the filter, were stained with Diff Quick (American Scientific Products) and counted.
The various compounds were examined as potential inhibitors at three concentrations: 100 μM, 50 μM and 10 μM.

MMP-1 = biological target: T1, MMP-1 (Homo sapiens, UniProt P03956); assay: Selectivity towards different MMPs: MMP-1; assay type: biochemical; details: Table 2
T1 sequence (P03956 100-469): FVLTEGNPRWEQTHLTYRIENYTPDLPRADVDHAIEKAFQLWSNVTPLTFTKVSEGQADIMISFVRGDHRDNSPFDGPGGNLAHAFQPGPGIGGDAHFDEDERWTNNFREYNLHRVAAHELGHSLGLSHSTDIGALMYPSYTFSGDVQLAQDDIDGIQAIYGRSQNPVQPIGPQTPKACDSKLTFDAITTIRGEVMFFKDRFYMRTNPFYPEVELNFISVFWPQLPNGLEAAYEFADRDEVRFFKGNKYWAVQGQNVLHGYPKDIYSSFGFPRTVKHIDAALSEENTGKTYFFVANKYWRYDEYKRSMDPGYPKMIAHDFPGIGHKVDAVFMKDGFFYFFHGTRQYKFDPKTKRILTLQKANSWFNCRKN

recombinant MMP-9 = biological target: T2, recombinant MMP-9 (Homo sapiens, UniProt P14780); assay: MMP inhibitory potency in vitro, succinylated-gelatin colorimetric assay; assay type: biochemical
T2 construct: purchased
Procedure: (§1) Determination of MMP Inhibitory Potency (IC50 Values) in vitro
(§2) The commercially available recombinant MMP-2 and MMP-9 enzymes were incubated with succinylated-gelatin at four different concentrations for 3 h. The examined compounds were added at four to six different concentrations to the recombinant enzymes and the inhibitory potencies were expressed in a colorimetric change measured by an ELISA reader. The inhibitory activity (IC50) was calculated from the kinetic data obtained.

recombinant MMP-2 = biological target: T3, recombinant MMP-2 (Homo sapiens, UniProt P08253); assay: as above; assay type: biochemical; details: for times more active on MMP-2 than its analog or isomer: 11 vs 6, 9 vs 9a, 10 vs 10a, 11 vs 11a
T3 construct: purchased
T3 sequence (P08253 110-660): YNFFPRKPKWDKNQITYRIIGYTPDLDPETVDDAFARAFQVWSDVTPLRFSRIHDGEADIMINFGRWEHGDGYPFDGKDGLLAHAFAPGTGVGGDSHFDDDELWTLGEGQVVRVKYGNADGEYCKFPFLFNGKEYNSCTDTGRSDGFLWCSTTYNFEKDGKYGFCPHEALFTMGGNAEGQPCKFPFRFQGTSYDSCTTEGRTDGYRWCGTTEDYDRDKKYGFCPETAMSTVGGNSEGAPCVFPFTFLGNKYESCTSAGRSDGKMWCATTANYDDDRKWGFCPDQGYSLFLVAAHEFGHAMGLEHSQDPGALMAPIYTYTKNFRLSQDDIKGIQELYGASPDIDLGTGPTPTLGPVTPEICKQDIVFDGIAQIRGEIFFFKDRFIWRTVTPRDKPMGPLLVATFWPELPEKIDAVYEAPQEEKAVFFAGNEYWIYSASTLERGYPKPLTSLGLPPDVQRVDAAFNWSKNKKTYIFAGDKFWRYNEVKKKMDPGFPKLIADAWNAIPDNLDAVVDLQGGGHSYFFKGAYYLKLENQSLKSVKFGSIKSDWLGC
Procedure: as §1, §2

Endothelial cells = assay: Endothelial cell capillary tube formation; assay type: cell-based; details: read-out: Capillary Formation Inhibition % At 50 μM
Source text: Endothelial Cell Capillary Tube Formation
Some of the compounds were examined as to their potency to inhibit capillary formation, which is an in vitro model of angiogenesis, an essential step in the development of primary tumor and metastatic lesions. Endothelial cell migration to the newly formed tumor is the initial phase of angiogenesis, and is dependent on MMP expression. By using this assay that measures endothelial cell tube formation, the effects of some carbamoylphosphonates on angiogenesis at concentrations ranging from 100-5 μM were evaluated.
Description of the Endothelial Cell Capillary Tube Formation Experiment
Endothelial cells are harvested by 1 mM EDTA, and added to a Matrigel layer in a 24 well plate at 50,000 cells per well. After attachment, culture media (1 ml) is added and the plate is incubated as a monolayer culture. The plates are analyzed hourly using Hoffinan optics. This assay is used to evaluate inhibitory factors or stimulatory factors on capillary like structure formation, which may be added into the culture media.

MMP-8 = MMP-8 (Homo sapiens, UniProt P22894); assay: Selectivity towards different MMPs: MMP-8; assay type: biochemical; details: Table 2
[1] = Acute in vivo toxicity in healthy mice; details: daily for two weeks at 50, 250 and 500 mg/kg
Source text: Determination of Acute in vivo Toxicity of Representative Carbamoylphosphonates

[2] = ip, read-out: In vivo murine melanoma % reduction IP
[3] = po, read-out: In vivo murine melanoma % reduction PO

T2 sequence (P14780 94-707, species assumed): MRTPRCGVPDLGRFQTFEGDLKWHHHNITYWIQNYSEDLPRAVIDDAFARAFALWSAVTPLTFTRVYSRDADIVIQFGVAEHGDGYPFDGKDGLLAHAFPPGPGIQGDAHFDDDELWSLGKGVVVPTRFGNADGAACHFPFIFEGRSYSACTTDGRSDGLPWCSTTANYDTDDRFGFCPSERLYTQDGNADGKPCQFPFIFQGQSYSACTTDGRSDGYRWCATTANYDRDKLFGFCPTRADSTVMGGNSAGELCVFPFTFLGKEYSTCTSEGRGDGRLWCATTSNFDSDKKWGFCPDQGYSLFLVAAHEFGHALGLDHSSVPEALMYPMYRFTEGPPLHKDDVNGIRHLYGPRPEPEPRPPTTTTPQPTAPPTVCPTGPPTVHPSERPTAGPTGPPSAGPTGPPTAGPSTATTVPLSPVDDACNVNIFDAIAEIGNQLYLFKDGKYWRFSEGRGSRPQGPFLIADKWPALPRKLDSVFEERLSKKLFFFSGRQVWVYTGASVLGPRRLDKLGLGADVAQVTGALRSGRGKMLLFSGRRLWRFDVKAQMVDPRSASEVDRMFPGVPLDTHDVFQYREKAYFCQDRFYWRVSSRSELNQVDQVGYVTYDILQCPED
Sequence of MMP-3 (P08254 100-477, species assumed): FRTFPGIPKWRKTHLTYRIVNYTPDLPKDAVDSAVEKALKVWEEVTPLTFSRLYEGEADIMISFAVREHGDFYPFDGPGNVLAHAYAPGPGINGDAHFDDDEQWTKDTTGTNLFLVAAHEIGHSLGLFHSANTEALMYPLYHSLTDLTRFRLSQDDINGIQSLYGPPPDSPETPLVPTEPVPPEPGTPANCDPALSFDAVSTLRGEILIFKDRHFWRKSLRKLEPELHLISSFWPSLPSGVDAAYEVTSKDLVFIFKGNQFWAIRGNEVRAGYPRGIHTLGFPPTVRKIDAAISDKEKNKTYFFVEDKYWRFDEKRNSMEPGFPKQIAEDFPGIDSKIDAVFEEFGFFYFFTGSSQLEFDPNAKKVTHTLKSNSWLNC
Sequence of MMP-8 (P22894 101-467, species assumed): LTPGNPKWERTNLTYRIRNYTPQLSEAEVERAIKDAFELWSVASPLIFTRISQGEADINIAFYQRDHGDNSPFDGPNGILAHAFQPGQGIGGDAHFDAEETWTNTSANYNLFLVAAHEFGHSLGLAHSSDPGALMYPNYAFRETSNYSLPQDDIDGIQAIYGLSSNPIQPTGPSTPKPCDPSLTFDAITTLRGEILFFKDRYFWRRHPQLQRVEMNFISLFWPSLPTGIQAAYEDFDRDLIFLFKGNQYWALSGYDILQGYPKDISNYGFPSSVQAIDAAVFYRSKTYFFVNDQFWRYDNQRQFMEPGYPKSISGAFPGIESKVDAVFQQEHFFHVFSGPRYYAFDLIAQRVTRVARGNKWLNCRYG

SMILES | IC50 (MMP-3) [µM] | inhibition in vivo at 50 mg/kg (murine melanoma; [2]) [%] | inhibition in vivo at 50 mg/kg (murine melanoma; [3]) [%] | inhibition at 50 µM (cancer cells) [%] | melting point [°C] | IC50 (MMP-1) [µM] | IC50 (recombinant MMP-9) [µM] | IC50 (recombinant MMP-2) [nM] | inhibition at 50 µM (Endothelial cells) [%] | IC50 (MMP-8) [µM] | IC50 (recombinant MMP-2; Table 1, read-out: MMP-2 IC50) [nM] | also measured
O=C(N[C@@H]1C[C@@H]2CC[C@H]1C2)P(=O)(O)O (relative stereo) [Compound 10, N-[endo-2-norbornyl]carbamoylphosphonic acid] | > 100 | 87 | 80 | 25 | 164 to 165 | > 100 | > 100 | 100 | 30 | > 100 |  | IC50 (recombinant MMP-9; read-out: MMP-9 IC50 μM, Table 2): > 100 µM; times more active on MMP-2 than its analog or isomer (recombinant MMP-2): 150 times
O=C(N[C@@H]1C[C@H]2CC[C@@H]1C2)P(=O)(O)O (relative stereo) [Compound 10a, N-[exo-2-norbornyl]carbamoylphosphonic acid] | > 100 |  |  |  | 170 to 172 | 1 | > 100 | 15000 |  | > 100 |  | 
N[C@H]1CCCC[C@@H]1NC(=O)P(=O)(O)O (relative stereo) [Compound 11a, Trans-2-aminocyclohexylcarbamoyl phosphonic acid] | 25 |  |  |  |  | 90 | > 100 | 20000 |  | 50 |  | 
O=C(NC1CCCC1)P(=O)(O)O [Compound 1, CyclopentylNHCOPO3H2] |  | 72 | 71 | 65 |  |  |  |  | 70 |  | 80 | toxicity [1]: toxic at 250 mg/kg and 500 mg/kg doses
O=P(O)(O)C(=S)NC1CCCC1 [Compound 2, CyclopentylNHCSPO3H2] |  | 56 | 70 | 70 |  |  | 50 | 70 |  |  |  | 
O=C(NC1CCCCC1)P(=O)(O)O [Compound 3, CyclohexylNHCOPO3H2] |  | 64 |  | 46 |  |  |  |  | 50 |  | 3000 | 
O=P(O)(O)C(=S)NC1CCCCC1 [Compound 4, CyclohexylNHCSPO3H2] |  | 68 |  | 50 |  |  | > 100 | 100 | 38 |  |  | 
O=C(NCC1CCCCC1)P(=O)(O)O [Compound 5, cyclohexylmethyl carbamoylphosphonic acid] |  | 69 | 14 | 50 |  |  |  |  | 53 |  | 200 | oral bioavailability (murine melanoma): 14%; IC50 (recombinant MMP-9; Table 1, read-out: MMP-9 IC50): 1 µM
NCCNC(=O)P(=O)(O)O [Compound 6, H2N(CH2)2NHCOPO3H2] |  | 57 |  | 45 |  |  | 2 | 800 | 43 |  |  | 
CN(C)CCNC(=O)P(=O)(O)O [Compound 7, Me2N(CH2)2NHCOPO3H2] |  | 75 | 29 | 66 |  |  | 20 | 30 | 75 |  |  | 
O=P(O)(O)C(=S)NCC1CCCCC1 [Compound 8, N-(Cyclohexylmethyl)thiocarbamoylphosphonic acid] |  | 80 | 80 | 70 |  |  | 0.015 | 15 | 75 |  |  | oral bioavailability (murine melanoma): improved oral bioavailability
C[C@@H](NC(=O)P(=O)(O)O)C1CCCCC1 [Compound 9, N—[(R)-1-Cyclohexylethyl]carbamoylphosphonic acid] | > 100 |  |  |  | 155 to 156 | > 100 |  |  | 35 | > 100 | 200 | inhibition in vivo at 50 mg/kg (murine melanoma; IP, 50 mg/kg daily for 21 days, lung tumors counted, read-out: In vivo murine melanoma % reduction IP): 68%; inhibition in vivo at 50 mg/kg (murine melanoma; PO, 50 mg/kg daily for 21 days, lung tumors counted, read-out: In vivo murine melanoma % reduction PO): 90%; oral bioavailability (murine melanoma): 90%; inhibition at 50 µM (cancer cells; 50 μM, Matrigel): 33%; IC50 (recombinant MMP-9; Table 1, read-out: MMP-9 IC50): ≥ 100 µM; IC50 (recombinant MMP-9; Table 2, read-out: MMP-9 IC50): > 100 µM; times more active on MMP-2 than its analog or isomer (recombinant MMP-2): five times more active; IC50 (recombinant MMP-2; Table 2, read-out: MMP-2 IC50): 200 nM
C[C@H](NC(=O)P(=O)(O)O)C1CCCCC1 [Compound 9a] | 0.1 |  |  |  | 167 to 168 | 2 |  |  |  | > 100 |  | IC50 (recombinant MMP-9; Table 2, read-out: MMP-9 IC50): 10 µM; IC50 (recombinant MMP-2; Table 2, read-out: MMP-2 IC50): 1000 nM
